Source: patent US8247211B2, “Glycopeptide antibiotics” (American Cyanamid Company, priority 2001, dated 2012)
In brackets after ≈: the same amount, converted by molar mass.

How the values were obtained:
Test in all cases: In vitro antibacterial evaluation: minimum inhibitory concentration (MIC), broth dilution method
Assay type in all cases: cell-based
Streptococcus sp. = conditions: 18 hours at 35° C.
Outline: (§1)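 Values are minimum inhibitory concentrations, meaning the smallest antibiotic concentration that stops growth of the organism. They come from broth dilution in Muller-Hinton II […] per NCCLS guidance (M7-A2), using 5×10^5 CFU/mL and concentrations from 64 to 0.06 μg/mL.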

Enterococcus sp. = conditions: 18 hours at 35° C.
Outline: as §1

Escherichia coli = conditions: 18 hours at 35° C.
Outline: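 MIC read as lowest drug level preventing visible growth. Organisms at 5×10^5 CFU/mL were exposed to a 64-0.06 μg/mL dilution series in Muller-Hinton II […] following NCCLS broth dilution standard M7-A2.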

Staphylococcus sp. = test system: Staphylococcus sp.
Outline: as §1

[1] = broth dilution, inoculum 5×10^5 CFU/mL

MIC Streptococcus agalactiae (GC 4564) (Streptococcus sp.; Streptococcus agalactiae (GC 4564)): <0.12 µg/mL | MIC Streptococcus pneumoniae (ATCC 6301) (Streptococcus sp.; Streptococcus pneumoniae (ATCC 6301)): <0.12 µg/mL | MIC Streptococcus pneumoniae (GC 1894) (Streptococcus sp.; Streptococcus pneumoniae (GC 1894)): <0.12 µg/mL | MIC Streptococcus pneumoniae (GC 4565) (Streptococcus sp.; Streptococcus pneumoniae (GC 4565)): <0.12 µg/mL | MIC Streptococcus pyogenes (GC 4563) (Streptococcus sp.; Streptococcus pyogenes (GC 4563)): <0.12 µg/mL | MIC Streptococcus agalactiae (GC 4564) (Streptococcus sp.; [1]): <0.12 µg/mL | MIC Streptococcus pneumoniae (ATCC 6301) (Streptococcus sp.; [1]): <0.12 µg/mL | MIC Streptococcus pneumoniae (GC 1894) (Streptococcus sp.; [1]): <0.12 µg/mL | MIC Streptococcus pneumoniae (GC 4565) (Streptococcus sp.; [1]): <0.12 µg/mL | MIC Streptococcus pyogenes (GC 4563) (Streptococcus sp.; [1]): <0.12 µg/mL | MIC Enterococcus avium (GC 4558) (Enterococcus sp.; Enterococcus avium (GC 4558)): 2 µg/mL (≈ 1.45 µM) | MIC Enterococcus faecalis (ATCC 29212) (Enterococcus sp.; Enterococcus faecalis (ATCC 29212)): 4 µg/mL (≈ 2.91 µM) | MIC Enterococcus faecalis (GC 2242) (Enterococcus sp.; Enterococcus faecalis (GC 2242)): 2 µg/mL (≈ 1.45 µM) | MIC Enterococcus faecalis (GC 2691) (Enterococcus sp.; Enterococcus faecalis (GC 2691)): 4 µg/mL (≈ 2.91 µM) | MIC Enterococcus faecalis (GC 3059) (Enterococcus sp.; Enterococcus faecalis (GC 3059)): 4 µg/mL (≈ 2.91 µM) | MIC Enterococcus faecalis (GC 4552) (Enterococcus sp.; Enterococcus faecalis (GC 4552)): 4 µg/mL (≈ 2.91 µM) | MIC Enterococcus faecalis (GC 4553) (Enterococcus sp.; Enterococcus faecalis (GC 4553)): 4 µg/mL (≈ 2.91 µM) | MIC Enterococcus faecalis (GC 4554) (Enterococcus sp.; Enterococcus faecalis (GC 4554)): 4 µg/mL (≈ 2.91 µM) | MIC Enterococcus faecalis (GC 6189) (Enterococcus sp.; Enterococcus faecalis (GC 6189)): 2 µg/mL (≈ 1.45 µM) | MIC Enterococcus faecium (GC 2243) (Enterococcus sp.; Enterococcus faecium (GC 2243)): 4 µg/mL (≈ 2.91 µM) | MIC Enterococcus faecium (GC 4556) (Enterococcus sp.; Enterococcus faecium (GC 4556)): 4 µg/mL (≈ 2.91 µM) | MIC Enterococcus faecium (GC 4557) (Enterococcus sp.; Enterococcus faecium (GC 4557)): 2 µg/mL (≈ 1.45 µM) | MIC Enterococcus avium (GC 4558) (Enterococcus sp.; [1]): 2 µg/mL (≈ 1.45 µM) | MIC Enterococcus faecalis (ATCC 29212) (Enterococcus sp.; [1]): 4 µg/mL (≈ 2.91 µM) | MIC Enterococcus faecalis (GC 2242) (Enterococcus sp.; [1]): 2 µg/mL (≈ 1.45 µM) | MIC Enterococcus faecalis (GC 2691) (Enterococcus sp.; [1]): 4 µg/mL (≈ 2.91 µM) | MIC Enterococcus faecalis (GC 3059) (Enterococcus sp.; [1]): 4 µg/mL (≈ 2.91 µM) | MIC Enterococcus faecalis (GC 4552) (Enterococcus sp.; [1]): 4 µg/mL (≈ 2.91 µM) | MIC Enterococcus faecalis (GC 4553) (Enterococcus sp.; [1]): 4 µg/mL (≈ 2.91 µM) | MIC Enterococcus faecalis (GC 4554) (Enterococcus sp.; [1]): 4 µg/mL (≈ 2.91 µM) | MIC Enterococcus faecalis (GC 6189) (Enterococcus sp.; [1]): 2 µg/mL (≈ 1.45 µM) | MIC Enterococcus faecium (GC 2243) (Enterococcus sp.; [1]): 4 µg/mL (≈ 2.91 µM) | MIC Enterococcus faecium (GC 4556) (Enterococcus sp.; [1]): 4 µg/mL (≈ 2.91 µM) | MIC Enterococcus faecium (GC 4557) (Enterococcus sp.; [1]): 2 µg/mL (≈ 1.45 µM) | MIC Escherichia coli (ATCC 25922) (Escherichia coli; Escherichia coli (ATCC 25922)): 64 µg/mL (≈ 46.5 µM) | MIC Escherichia coli (GC 4559) (Escherichia coli; Escherichia coli (GC 4559)): 32 µg/mL (≈ 23.3 µM) | MIC Escherichia coli (GC 4560) (Escherichia coli; Escherichia coli (GC 4560)): 1 µg/mL (≈ 0.727 µM) | MIC Staphylococcus aureus (ATCC 29213) (Staphylococcus sp.; strain ATCC 29213): 2 µg/mL (≈ 1.45 µM) | MIC Staphylococcus aureus (GC 1131) (Staphylococcus sp.; strain GC 1131): 2 µg/mL (≈ 1.45 µM) | MIC Staphylococcus aureus (GC 3051) (Staphylococcus sp.; strain GC 3051): 1 µg/mL (≈ 0.727 µM) | MIC Staphylococcus aureus (GC 3053) (Staphylococcus sp.; strain GC 3053): 2 µg/mL (≈ 1.45 µM) | MIC Staphylococcus aureus (GC 4541) (Staphylococcus sp.; strain GC 4541): 2 µg/mL (≈ 1.45 µM) | MIC Staphylococcus aureus (GC 4542) (Staphylococcus sp.; strain GC 4542): 1 µg/mL (≈ 0.727 µM) | MIC Staphylococcus aureus-SMITH (GC 4543) (Staphylococcus sp.; strain GC 4543): 1 µg/mL (≈ 0.727 µM) | MIC Staphylococcus aureus (GC 4544) (Staphylococcus sp.; strain GC 4544): 2 µg/mL (≈ 1.45 µM) | MIC Staphylococcus aureus (GC 4545) (Staphylococcus sp.; strain GC 4545): 1 µg/mL (≈ 0.727 µM) | MIC Coagulase Negative Staphylococcus (GC 4547) (Staphylococcus sp.; strain GC 4547): 2 µg/mL (≈ 1.45 µM) | MIC Coagulase Negative Staphylococcus (GC 4548) (Staphylococcus sp.; strain GC 4548): 0.5 µg/mL (≈ 0.364 µM) | MIC Coagulase Negative Staphylococcus (GC 4549) (Staphylococcus sp.; strain GC 4549): 0.5 µg/mL (≈ 0.364 µM) | MIC Coagulase Negative Staphylococcus (GC 4551) (Staphylococcus sp.; strain GC 4551): 1 µg/mL (≈ 0.727 µM)
Compound: N=C1NCC(C(O)C2NC(=O)C(Cc3ccc(OC4OC(CO)C(OC5OC6COC(c7ccccc7)OC6C(O)C5O)C(O)C4O)cc3)NC(=O)C(CC3CCCCC3)NC(=O)CNC(=O)C(CO)NC(=O)C(C(O)C3CNC(=N)N3C3OC(CO)C(O)C(O)C3O)NC2=O)N1 (stereo not drawn) [Example 199, Cyclo[3-cyclohexylalanyl-O-[4-O-(4,6-O-benzylidenehexopyranosyl)hexopyranosyl]tyrosyl-3-(2-iminoimidazolidin-4-yl)seryl-3-(3-hexopyranosyl-2-iminoimidazolidin-4-yl)-seryl-serylglycyl]]
MIC Staphylococcus haemolyticus (GC 4546) (Staphylococcus sp.; strain GC 4546): 1 µg/mL (≈ 0.727 µM)
